Assays:
[1] = test system: Rattus norvegicus; assay: Plasma concentration of compound 1 in Sprague-Dawley rats upon 2 mg/kg iv dose of prodrug after 30 minutes; type: functional, organism-based; set-up: dose 2 mg/kg
[2] = molecular target: T1, Prostaglandin G/H synthase 2 (Homo sapiens, UniProt P35354); assay: Inhibitory concentration against prostaglandin G/H synthase 2 in human whole blood
T1 sequence (P35354 whole entry): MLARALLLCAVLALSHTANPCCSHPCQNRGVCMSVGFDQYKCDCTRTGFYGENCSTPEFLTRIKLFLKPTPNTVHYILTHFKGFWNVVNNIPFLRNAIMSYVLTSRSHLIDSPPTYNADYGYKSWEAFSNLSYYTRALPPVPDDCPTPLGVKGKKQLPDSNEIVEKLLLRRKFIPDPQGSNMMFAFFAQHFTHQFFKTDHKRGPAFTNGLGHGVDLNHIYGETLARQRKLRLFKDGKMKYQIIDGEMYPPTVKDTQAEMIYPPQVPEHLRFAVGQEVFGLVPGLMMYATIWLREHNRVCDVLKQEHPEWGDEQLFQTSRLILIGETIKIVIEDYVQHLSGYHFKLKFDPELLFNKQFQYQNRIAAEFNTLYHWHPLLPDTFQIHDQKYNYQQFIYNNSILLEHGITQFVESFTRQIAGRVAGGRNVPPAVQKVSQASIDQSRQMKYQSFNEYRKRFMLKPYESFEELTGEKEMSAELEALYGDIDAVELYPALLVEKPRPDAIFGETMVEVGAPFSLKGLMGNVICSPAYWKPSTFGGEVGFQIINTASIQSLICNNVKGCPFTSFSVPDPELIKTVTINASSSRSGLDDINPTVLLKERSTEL

[3] = molecular target: Prostaglandin G/H synthase 1 (Homo sapiens, UniProt P23219); assay: Inhibitory concentration against prostaglandin G/H synthase 1 in human whole blood; type: tissue-based
Chain of Prostaglandin G/H synthase 1 (P23219 whole entry, the tested form may be a part): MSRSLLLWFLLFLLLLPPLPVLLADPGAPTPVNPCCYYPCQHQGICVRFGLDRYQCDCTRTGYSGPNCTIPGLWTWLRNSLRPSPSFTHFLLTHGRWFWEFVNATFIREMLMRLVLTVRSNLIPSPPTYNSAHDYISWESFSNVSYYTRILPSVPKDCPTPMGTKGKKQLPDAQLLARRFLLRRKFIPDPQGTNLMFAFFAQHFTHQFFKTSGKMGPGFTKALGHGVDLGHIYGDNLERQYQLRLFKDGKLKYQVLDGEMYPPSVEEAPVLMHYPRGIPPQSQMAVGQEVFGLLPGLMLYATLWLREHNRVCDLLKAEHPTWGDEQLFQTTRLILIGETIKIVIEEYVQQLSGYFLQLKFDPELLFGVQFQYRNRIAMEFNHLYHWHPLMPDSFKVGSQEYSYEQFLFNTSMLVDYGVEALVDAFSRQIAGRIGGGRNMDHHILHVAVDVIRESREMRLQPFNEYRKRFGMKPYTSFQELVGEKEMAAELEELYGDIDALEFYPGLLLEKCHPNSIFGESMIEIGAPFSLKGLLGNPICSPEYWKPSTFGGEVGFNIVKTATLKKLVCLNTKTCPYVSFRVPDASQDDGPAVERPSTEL

[4] = test system: Rattus norvegicus; assay: Concentration of compound 16 in brain of Sprague-Dawley rats upon 5 mg/kg bolus+ 3 mg/Kg/h infusion of compound after 24 hours; type: functional, organism-based
[5] = test system: Rattus norvegicus; assay: Concentration of compound 16 in brain of Sprague-Dawley rats upon 10 mg/kg bolus+ 5 mg/Kg/h infusion of compound after 24 hours; type: functional, organism-based
[6] = test system: Rattus norvegicus; assay: Concentration of compound 16 in plasma of Sprague-Dawley rats upon 5 mg/kg bolus+ 3 mg/Kg/h infusion of compound after 6 hours; type: functional, organism-based
[7] = test system: Rattus norvegicus; assay: Concentration of compound 16 in plasma of Sprague-Dawley rats upon 5 mg/kg bolus+ 3 mg/Kg/h infusion of compound after 24 hours; type: functional, organism-based
[8] = test system: Rattus norvegicus; assay: Ratio of concentration of compound 16 in brain to that of plasma of Sprague-Dawley rats upon 10 mg/kg bolus+ 5 mg/Kg/h infusion of compound after 24 hours; type: functional
[9] = test system: Rattus norvegicus; assay: Concentration of compound 16 in plasma of Sprague-Dawley rats upon 10 mg/kg bolus+ 5 mg/Kg/h infusion of compound after 6 hours; type: functional, organism-based
[10] = test system: Rattus norvegicus; assay: Ratio of concentration of compound 16 in brain to that of plasma of Sprague-Dawley rats upon 5 mg/kg bolus+ 3 mg/Kg/h infusion of compound after 24 hours; type: functional
[11] = test system: Rattus norvegicus; assay: Concentration of compound 16 in plasma of Sprague-Dawley rats upon 10 mg/kg bolus+ 5 mg/Kg/h infusion of compound after 24 hours; type: functional, organism-based
[12] = test system: Rattus norvegicus; assay: Concentration of compound 1 in plasma of Sprague-Dawley rats upon 10 mg/kg iv dose after 3 hours; type: functional, organism-based; set-up: dose 10 mg/kg
[13] = test system: Rattus norvegicus; assay: Concentration of compound 1 in brain of Sprague-Dawley rats upon 10 mg/kg iv dose after 3 hours; type: functional, organism-based; set-up: dose 10 mg/kg

CCOC(=O)[C@H](N)COC(=O)/C(=C(\COC(C)=O)c1ccc(S(C)(=O)=O)cc1)c1ccc(F)c(F)c1
Concentration [1]: 1.4 µM

CS(=O)(=O)c1ccc(C2=C(c3cccc(F)c3)C(=O)OC2)cc1
IC50 [2]: 1.3 µM
IC50 [3]: 65 µM

CC(=O)OC/C(=C(\C(=O)OCC[N+](C)(C)C)c1cccc(F)c1)c1ccc(S(C)(=O)=O)cc1.[Br-]
Concentration [4]: 5.5 µM
Concentration [5]: 11 µM
Concentration [6]: 6 µM
Concentration [7]: 9.2 µM
Ratio [8]: 55%
Concentration [9]: 16 µM
Ratio [10]: 59%
Concentration [11]: 20 µM

CC(=O)OC/C(=C(\C(=O)OCC[N+](C)(C)C)c1ccc(F)c(F)c1)c1ccc(S(C)(=O)=O)cc1
Concentration [12]: 1.4 µM
Concentration [13]: 0.7 µM
Concentration [1]: 0.9 µM

CCOC(=O)/C(=C(\COC(=O)[C@@H](N)CCCCN)c1ccc(S(C)(=O)=O)cc1)c1ccc(F)c(F)c1
Concentration [1]: 0.4 µM
